Tests used:
Assay in all cases: combination Emax (second highest fraction inhibited in the dose matrix, 72 h); higher = more inhibition; extreme values may be limits of the assay
[1] = tested on: NCI-H1755 (Lung Adenocarcinoma)
Summary of the method: (§1)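 Cell lines in DMEM/F12 or RPMI with 10% FBS were plated in 1536-well plates, held 24 hours at 37°C, 5% CO2, then given two-drug dose matrices for 72 hours (DMSO typically 0.2%). Viability was read by CellTiter-Glo 2.0 luminescence and scaled as inhibition from 0 (vehicle wells) to 1 (blank wells). Combination Emax is the second-highest inhibition in the matrix; Bliss excess is observed combination effect minus expected EA + EB − EA·EB, EA and EB being single-agent effects.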

[2] = tested on: AN3-CA (Endometrial Carcinoma)
Summary of the method: as §1

RT4 (Bladder Carcinoma) = tested on: RT4 (Bladder Carcinoma)
Summary of the method: as §1

[3] = tested on: Calu-6 (Non-Small Cell Lung Carcinoma)
Summary of the method: as §1

[4] = tested on: NCI-H1563 (Lung Adenocarcinoma)
Summary of the method: as §1

[5] = tested on: BALL-1 (B-Lymphoblastic Leukemia)
Summary of the method: as §1

[6] = tested on: NCI-H1155 (Non-Small Cell Lung Carcinoma)
Summary of the method: as §1

[7] = tested on: HSC-3 (Oral Cavity Carcinoma)
Summary of the method: as §1

786-0 (Kidney Carcinoma) = tested on: 786-0 (Kidney Carcinoma)
Summary of the method: as §1

[8] = tested on: Becker (Low Grade Glioma)
Summary of the method: as §1

[9] = tested on: EB-3 (Burkitt's Lymphoma)
Summary of the method: as §1

[10] = tested on: KYSE-70 (Esophageal Squamous Cell Carcinoma)
Summary of the method: as §1

[11] = tested on: SJRH30 (Rhabdomyosarcoma)
Summary of the method: as §1

[12] = tested on: OV-90 (Ovarian Carcinoma)
Summary of the method: as §1

[13] = tested on: RMG-I (Ovarian Carcinoma)
Summary of the method: as §1

CHL-1 (Melanoma) = tested on: CHL-1 (Melanoma)
Summary of the method: as §1

[14] = tested on: AsPC-1 (Pancreatic Carcinoma)
Summary of the method: as §1

[15] = tested on: RERF-LC-KJ (Lung Adenocarcinoma)
Summary of the method: as §1

[16] = tested on: LOUCY (T-Lymphoblastic Leukemia)
Summary of the method: as §1

Row | Compound | combination Emax [1] | combination Emax [2] | combination Emax (RT4 (Bladder Carcinoma)) | combination Emax [3] | combination Emax [4] | combination Emax [5] | combination Emax [6] | combination Emax [7] | combination Emax (786-0 (Kidney Carcinoma)) | combination Emax [8] | combination Emax [9] | combination Emax [10] | combination Emax [11] | combination Emax [12] | combination Emax [13] | combination Emax (CHL-1 (Melanoma)) | combination Emax [14] | combination Emax [15] | combination Emax [16]
1 | Cn1cnc2c(F)c(Nc3ccc(Br)cc3Cl)c(C(=O)NOCCO)cc21 [Selumetinib] + CC(C)n1c(=O)n(C)c2cnc3cc(F)c(-c4ccc(OCCCN5CCCCC5)nc4)cc3c21 [AZD1390] (first compound max 10 µM, 7x7, partner max 0.3 µM) | 0.235 | 0.0572 | 0.257 | 0.672 | 0.161 | 0.24 | 0.23 | 0.346 | 0.159 | 0.235 | 0.215 | 0.168 | 0.0759 | 0.598 | 0.362 | 0.0273 | 0.357 | 0.2 | 0.35
2 | Cn1cnc2c(F)c(Nc3ccc(Br)cc3Cl)c(C(=O)NOCCO)cc21 [Selumetinib] + CCN(CCO)CCCOc1ccc2c(Nc3cc(CC(=O)Nc4cccc(F)c4)[nH]n3)ncnc2c1 [AZD2811] (first compound max 10 µM, 7x7, partner max 1 µM) | 0.541 | 0.268 | 0.516 | 0.733 | 0.232 | 0.477 | 0.674 | 0.512 | 0.208 | 0.296 | 0.219 | 0.21 | 0.253 | 0.606 | 0.364 | 0.257 | 0.443 | 0.289 | 0.909
3 | COc1nnc2ccc(N3CCC(c4ccc(OCCN5CCN(C)C(=O)[C@H]5C)cc4)CC3)nn12 [AZD5153] + Cc1c2c(nn1C)CSCc1cc(n(C)n1)CSc1cc(c3ccccc3c1)OCCCc1c(C(=O)O)n(C)c3c-2c(Cl)ccc13 [AZD5991] (first compound max 1 µM, 7x7, partner max 1 µM) | 0.446 | 0.544 | 0.911 | 0.24 | 0.835 | 0.98 | 0.646 | 0.778 | 0.557 | 0.484 | 0.822 | 0.355 | 0.97 | 0.365 | 0.58 | 0.985 | 0.258 | 0.979 | 0.997
4 | CN(C)CCCOc1ccc(-c2ccc3ncc4c(c3c2)n(C2CCOCC2)c(=O)n4C)cn1 [AZD0156] + O=C(c1cc(Cc2n[nH]c(=O)c3ccccc23)ccc1F)N1CCN(C(=O)C2CC2)CC1 [Olaparib] (first compound max 3 µM, partner max 3 µM) | 0.414 | 0.352 | 0.174 | 0.36 | 0.246 | 0.79 | 0.452 | 0.467 | 0.223 | 0.247 | 0.568 | 0.123 | 0.48 | 0.257 | 0.29 | 0.186 | 0.297 | 0.368 | 0.368
5 | CC(=O)c1c(C)c2cnc(Nc3ccc(N4CCNCC4)cn3)nc2n(C2CCCC2)c1=O [Palbociclib] + Cc1c2c(nn1C)CSCc1cc(n(C)n1)CSc1cc(c3ccccc3c1)OCCCc1c(C(=O)O)n(C)c3c-2c(Cl)ccc13 [AZD5991] (first compound max 10 µM, 7x7, partner max 1 µM) | 0.524 | 0.886 | 0.355 | 0.33 | 0.609 | 0.777 | 0.237 | 0.613 | 0.489 | 0.428 | 0.435 | 0.157 | 0.786 | 0.158 | 0.306 | 0.691 | 0.199 | 0.288 | 0.553
6 | COc1nnc2ccc(N3CCC(c4ccc(OCCN5CCN(C)C(=O)[C@H]5C)cc4)CC3)nn12 [AZD5153] + Cn1cnc2c(F)c(Nc3ccc(Br)cc3Cl)c(C(=O)NOCCO)cc21 [Selumetinib] (first compound max 1 µM, 7x7, partner max 10 µM) | 0.564 | 0.268 | 0.686 | 0.854 | 0.465 | 0.859 | 0.686 | 0.812 | 0.577 | 0.388 | 0.706 | 0.424 | 0.486 | 0.817 | 0.571 | 0.666 | 0.595 | 0.868 | 0.729
7 | COc1nnc2ccc(N3CCC(c4ccc(OCCN5CCN(C)C(=O)[C@H]5C)cc4)CC3)nn12 [AZD5153] + C[C@@H]1COCCN1C2=NC(=NC(=C2)C3(CC3)[S@](=N)(=O)C)C4=C5C=CNC5=NC=C4 [AZD6738] (first compound max 1 µM, 7x7, partner max 10 µM) | 0.874 | 0.55 | 0.708 | 0.87 | 0.664 | 1 | 0.942 | 0.845 | 0.754 | 0.536 | 0.833 | 0.424 | 0.945 | 0.563 | 0.561 | 0.747 | 0.367 | 0.968 | 0.997
8 | COc1nnc2ccc(N3CCC(c4ccc(OCCN5CCN(C)C(=O)[C@H]5C)cc4)CC3)nn12 [AZD5153] + CC1(C)CCC(CN2CCN(c3ccc(C(=O)NS(=O)(=O)c4ccc(NCC5CCOCC5)c([N+](=O)[O-])c4)c(Oc4cnc5[nH]ccc5c4)c3)CC2)=C(c2ccc(Cl)cc2)C1 [Venetoclax] (first compound max 1 µM, 7x7, partner max 1 µM) | 0.454 | 0.2 | 0.483 | 0.157 | 0.491 | 1 | 0.71 | 0.69 | 0.503 | 0.334 | 0.806 | 0.409 | 0.383 | 0.387 | 0.599 | 0.531 | 0.176 | 0.971 | 1
9 | Cc1nc(Nc2ncc(C(=O)Nc3c(C)cccc3Cl)s2)cc(N2CCN(CCO)CC2)n1 [Dasatinib] + CC(=O)Nc1cccc(-n2c(=O)n(C3CC3)c(=O)c3c(Nc4ccc(I)cc4F)n(C)c(=O)c(C)c32)c1 [Trametinib] (first compound max 2 µM, 7x7, partner max 1 µM) | 0.961 | 0.491 | 0.822 | 0.969 | 0.447 | 0.257 | 0.237 | 0.867 | 0.642 | 0.5 | 0.362 | 0.278 | 0.157 | 0.752 | 0.505 | 0.409 | 0.612 | 0.436 | 0.344
10 | CS(=O)(=O)CCNCc1ccc(-c2ccc3ncnc(Nc4ccc(OCc5cccc(F)c5)c(Cl)c4)c3c2)o1 [Lapatinib] + C[C@@H](Oc1cc(-c2cnn(C3CCNCC3)c2)cnc1N)c1c(Cl)ccc(F)c1Cl [Crizotinib] (first compound max 10 µM, 7x7, partner max 10 µM) | 0.957 | 0.874 | 0.916 | 0.815 | 0.776 | 0.913 | 0.61 | 1 | 0.992 | 0.725 | 0.909 | 0.585 | 0.955 | 0.578 | 0.851 | 0.757 | 0.345 | 0.81 | 0.822
11 | Cn1cnc2c(F)c(Nc3ccc(Br)cc3Cl)c(C(=O)NOCCO)cc21 [Selumetinib] + C[C@@H]1COCCN1C2=NC(=NC(=C2)C3(CC3)[S@](=N)(=O)C)C4=C5C=CNC5=NC=C4 [AZD6738] (first compound max 10 µM, 7x7, partner max 10 µM) | 0.738 | 0.464 | 0.549 | 0.817 | 0.313 | 1 | 0.758 | 0.545 | 0.606 | 0.427 | 0.589 | 0.243 | 0.821 | 0.688 | 0.354 | 0.772 | 0.435 | 0.312 | 0.966
12 | Cn1cnc2c(F)c(Nc3ccc(Br)cc3Cl)c(C(=O)NOCCO)cc21 [Selumetinib] + C=CCn1c(=O)c2cnc(Nc3ccc(N4CCN(C)CC4)cc3)nc2n1-c1cccc(C(C)(C)O)n1 [AZD1775] (first compound max 10 µM, partner max 1 µM) | 0.776 | 0.354 | 0.368 | 0.855 | 0.303 | 1 | 0.342 | 0.601 | 0.572 | 0.309 | 0.703 | 0.328 | 0.846 | 0.628 | 0.359 | 0.572 | 0.437 | 0.401 | 0.977
13 | CC(=O)c1c(C)c2cnc(Nc3ccc(N4CCNCC4)cn3)nc2n(C2CCCC2)c1=O [Palbociclib] + CC1(C)CCC(CN2CCN(c3ccc(C(=O)NS(=O)(=O)c4ccc(NCC5CCOCC5)c([N+](=O)[O-])c4)c(Oc4cnc5[nH]ccc5c4)c3)CC2)=C(c2ccc(Cl)cc2)C1 [Venetoclax] (first compound max 10 µM, 7x7, partner max 1 µM) | 0.477 | 0.255 | 0.203 | 0.353 | 0.313 | 1 | 0.241 | 0.359 | 0.411 | 0.249 | 0.329 | 0.11 | 0.0832 | 0.0192 | 0.277 | 0.0898 | 0.104 | 0.117 | 1
